≈ marks a conversion by molar mass, not a printed value. Where “and” joins values, the source holds several entries; their conditions need not be identical. Identical values can stand only once. Like-named read-outs stand apart in the source and are kept apart here.
Tests used:
[1] = for CL mouse MEAN: microsomes
Vero cells [2] = test: cells; conditions: Chlorocebus sabaeus, read-out: VERO IC50
Description: (§1) Compounds were solubilized in DMSO and assayed as a 10-point 3-fold serial dilution. Compounds were incubated with cells for 2 days at 37 °C, 5% CO2. CellTiter-Glo Reagent (Promega) was added and relative luminescent units (RLU) measured.

Vero cells [3] = conditions: read-out: VERO IC50
Description: as §1

M. tuberculosis H37Rv = test: microbe, parasite or virus in culture; format: cell-based, Mycobacterium tuberculosis; conditions: for MIC90: read-out: MIC (MIC90); for IC90: read-out: TB-IC90_OD GEOM_MEAN
physchem [4] = test: physchem
physchem [5] = conditions: aqueous with cosolvent or surfactant or cyclodextrin, kinetic from dmso stock
in vitro = conditions: dog, MDCK-MDR1
[6] = system: Madin Darby Canine Kidney (MDCK)
[7] = Mycobacterium tuberculosis, H37RV

Row | Compound | Cli mouse ([1]; female, CD1, mouse, pH 7.4) [mL.min^–1.g^–1] | CL mouse MEAN ([1]; mouse) [mL/min/g] | IC50 (Vero cells [2]) [µM] | MIC90 (M. tuberculosis H37Rv; [7]) [µM] | IC90 (M. tuberculosis H37Rv; [7]) [µM] | chromatographic logD (physchem [4]) | also measured
1 | CNC(=O)c1sc(N2CC3CC2CO3)cc1OCCc1ccccc1 (centres unmarked) [Compound 30, 5-(2-Oxa-5-azabicyclo[2.2.1]heptan-5-yl)-N-methyl-3-phenethoxythiophene-2-carboxamide] | 13 | 12.51 | 72 | 3.8 (≈ 1.36 µg/mL) | 3.64 | – | IC50 (Vero cells [3]): 69.2 µM; drop in potency / activity (M. tuberculosis H37Rv): > 5 fold
2 | NC(=O)c1sc(N2CCOCC2)cc1OCCc1ccncc1 [Compound 43, 5-Morpholino-3-[2-(4-pyridyl)ethoxy]thiophene-2-carboxamide] | 8 | 8.013 | > 100 | > 20 | – | 0.617 | –
3 | CNC(=O)c1sc(N2CCOCC2)cc1OCCc1ccccc1 [Compound 21, N-Methyl-5-morpholino-3-(2-phenylethoxy)thiophene-2-carboxamide] | 36 | 35.49 | 91 | 0.12 (≈ 0.0416 µg/mL) | 0.133 | 2.44 | IC50 (Vero cells [3]): 72.4 µM; MIC (M. tuberculosis H37Rv; Mycobacterium tuberculosis, H37RV, read-out: MIC WT): 0.08 µM (≈ 0.0277 µg/mL)
4 | NC(=O)c1sc(N2CCOCC2)cc1OCCc1ccc(F)cc1 [Compound 40] | 13 | – | > 100 | 0.9 (≈ 0.315 µg/mL) | – | 1.85 | CL mouse MEAN ([1]; female, CD1, mouse, pH 7.4): 12.72 mL/min/g
5 | CCNC(=O)c1sc(N2CCOCC2)cc1OCCc1ccccc1 [Compound 22, N-Ethyl-5-morpholino-3-(2-phenylethoxy)thiophene-2-carboxamide] | 50 | 50 | 56 | 1.7 (≈ 0.613 µg/mL) | 1.67 | – | IC50 (Vero cells [3]): 56 µM
6 | NC(=O)c1ccc(N2CCOCC2)cc1OCCc1ccccc1 [Compound 54, 4-Morpholino-2-phenethoxybenzamide] | 12 | 12.21 | > 100 | > 20 | – | 2.11 | –
7 | O=C(NCC(F)(F)F)c1sc(N2CCOCC2)cc1OCCc1ccccc1 [Compound 23, 5-Morpholino-3-phenethoxy-N-(2,2,2-trifluoroethyl)thiophene-2-carboxamide] | 30 | 30.19 | > 100 | 3.4 (≈ 1.41 µg/mL) | 3.32 | 3.11 | solubility kinetic (physchem [5]): 67 µM (≈ 27.8 µg/mL)
8 | NC(=O)c1sc(N2CCOCC2)cc1OCCc1ccccc1F [Compound 38] | 25 | – | 84 | 3.4 (≈ 1.19 µg/mL) | 3.7 | 2.05 | CL mouse MEAN ([1]; female, CD1, mouse, pH 7.4): 25.22 mL/min/g; IC50 (Vero cells [3]): 83.2 µM
9 | 5-[2-Methoxyethyl(methyl)amino]-3-(2-phenylethoxy)thiophene-2-carboxamide [Compound 32] | – | 28.42 | – | – | – | – | IC50 (Vero cells [3]): > 100 µM; MIC (MIC90) (M. tuberculosis H37Rv): >20 (3) μM
10 | NC(=O)c1sc(N2CCOCC2)cc1CCCc1ccccc1 [Compound 49, 5-Morpholino-3-(3-phenylpropyl)thiophene-2-carboxamide] | 20 | 20.17 | 69 | 3.5 (≈ 1.16 µg/mL) | – | – | –
11 | NC(=O)c1nc(N2CCOCC2)ccc1OCCc1ccccc1 [Compound 57, 6-Morpholino-3-(2-phenylethoxy)pyridine-2-carboxamide] | 2.3 | 2.315 | > 100 | 6.9 (≈ 2.26 µg/mL) | – | 1.61 | –
12 | 3-(2,2-Difluoro-2-phenylethoxy)-5-morpholinothiophene-2-carboxamide [Compound 50] | – | 19.1 | – | – | – | – | IC50 (Vero cells [3]): 95 µM; MIC (MIC90) (M. tuberculosis H37Rv): >20 (2) μM
13 | 5-(3-Methylmorpholino)-3-phenethoxythiophene-2-carboxamide [Compound 31] | – | 11.19 | – | – | – | – | IC50 (Vero cells [3]): 77 µM and 79.4 µM; MIC (MIC90) (M. tuberculosis H37Rv): >20 (2) μM
14 | NC(=O)c1sc(N2CCOCC2)cc1OCc1ccccc1 [Compound 48, 3-Benzyloxy-5-morpholinothiophene-2-carboxamide] | 14 | 14.31 | > 100 | > 20 | – | 1.52 | –
15 | COc1ccc(CCOc2cc(N3CCOCC3)sc2C(N)=O)cc1 [Compound 36, 3-[2-(4-Methoxyphenyl)ethoxy]-5-morpholinothiophene-2-carboxamide] | 5.7 | 5.742 | > 100 | 0.63 (≈ 0.228 µg/mL) | 0.57 | 1.73 | –
16 | NC(=O)c1sc(N2CCOCC2=O)cc1OCCc1ccccc1 [Compound 29, 5-(3-Oxomorpholino)-3-phenethoxythiophene-2-carboxamide] | 7 | 6.629 | > 100 | 15 (≈ 5.2 µg/mL) | 10 | – | drop in potency / activity (M. tuberculosis H37Rv): > 10 fold; solubility kinetic (physchem [5]): 79 µM (≈ 27.4 µg/mL)
17 | COc1ccccc1CCOc1cc(N2CCOCC2)sc1C(N)=O [Compound 42, 3-[2-(2-Methoxyphenyl)ethoxy]-5-morpholinothiophene-2-carboxamide] | 26 | 26.42 | > 100 | > 20 | – | 1.95 | –
18 | NC(=O)c1sccc1OCCc1ccccc1 [Compound 27, 3-(2-Phenylethoxy)thiophene-2-carboxamide] | 26 | 26 | > 100 | > 20 | > 20 | 2.05 | –
19 | NC(=O)c1sc(N2CCOCC2)cc1OCCN1CCOCC1 [Compound 47, 5-Morpholino-3-(2-morpholinoethoxy)thiophene-2-carboxamide] | 0.9 | 0.8847 | > 100 | > 20 | – | 0.189 | –
20 | N#Cc1ccc(CCOc2cc(N3CCOCC3)sc2C(N)=O)cc1 [Compound 44, 3-[2-(4-Cyanophenyl)ethoxy]-5-morpholino-thiophene-2-carboxamid] | 4.8 | 4.758 | > 100 | 14 (≈ 5 µg/mL) | – | 1.56 | –
21 | NC(=O)c1sc(N2CCOCC2)cc1OC1CCCc2ccccc21 (centres unmarked) [Compound 52, 5-Morpholino-3-tetralin-1-yloxy-thiophene-2-carboxamide] | 5.4 | 5.383 | 56 | > 20 | – | 2.22 | –
22 | NC(=O)c1sc(N2CCOCC2)cc1OC1CCc2ccccc21 (centres unmarked) [Compound 53, 3-Indan-1-yloxy-5-morpholinothiophene-2-carboxamide] | 1.4 | 1.393 | > 100 | > 20 | – | 1.15 | –
23 | NC(=O)c1sc(N2CCOCC2)cc1OCC(O)c1ccccc1 (centres unmarked) [Compound 51, 3-(2-Hydroxy-2-phenylethoxy)-5-morpholinothiophene-2-carboxamine] | 3.8 | 3.788 | > 100 | > 20 | – | 1.12 | –
24 | COc1cccc(CCOc2cc(N3CCOCC3)sc2C(N)=O)c1 [Compound 41, 3-[2-(3-Methoxyphenyl)ethoxy]-5-morpholinothiophene-2-carboxamide] | 10 | 10.31 | 89 | 1.6 (≈ 0.58 µg/mL) | – | 1.85 | –
25 | COCCc1ccc(OCC(O)CNC(C)C)cc1 (centres unmarked) [Metoprolol, reference compound] | – | – | – | – | – | – | Papp A→B (in vitro): 55 ×10⁻⁶ cm/s; Papp B→A (in vitro): 40 ×10⁻⁶ cm/s
26 | NC(=O)c1sc(N2CCOCC2)cc1OCC1CCCO1 (centres unmarked) [Compound 45, 5-Morpholino-3-((tetrahydrofuran-2-yl)methoxy)thiophene-2-carboxamide] | 4.3 | 4.249 | > 100 | > 20 | – | – | –
27 | NC(=O)c1cc(N2CCOCC2)ccc1OCCc1cccc(F)c1 [Compound 56, 2-[2-(3-Fluorophenyl)ethoxy]-5-morpholino-benzamide] | 6.4 | 6.406 | > 100 | 2.8 (≈ 0.964 µg/mL) | – | – | Papp A→B (in vitro): 51 ×10⁻⁶ cm/s; Papp B→A (in vitro): 37 ×10⁻⁶ cm/s; P-glycoprotein (P-gp) efflux (in words) ([6]; MDCK-MDR1): no likely P-glycoprotein (P-gp) efflux issues; permeability (in words) ([6]; MDCK-MDR1): good permeability; P-gp Efflux B→ A/A → B ([6]; dog, MDCK): 0.7
28 | C=C[C@H]1C[N@@]2CC[C@H]1C[C@@H]2[C@@H](O)c1ccnc2ccc(OC)cc12 [Quinidine, reference compound] | – | – | – | – | – | – | Papp B→A (in vitro): 89 ×10⁻⁶ cm/s
29 | O=C(NO)c1sc(N2CCOCC2)cc1OCCc1ccccc1 [Compound 16, 5-Morpholino-3-(2-phenylethoxy)thiophene-2-carbohydroxamic Acid] | 6 | 6.073 | 58 | 3.5 (≈ 1.22 µg/mL) | 3.32 | – | IC50 (Vero cells [3]): 58 µM
30 | COC(=O)c1sc(N2CCOCC2)cc1OCCc1ccccc1 [Compound 14, Methyl 5-Morpholino-3-(2-phenylethoxy)thiophene-2-carboxylate] | 50 | – | > 100 | > 20 | – | – | –

Source: PMC6089501 (Journal of Medicinal Chemistry, 2018)
